Where only a bound is given, the exact number is not on record here.

This assay has as its system influenza A/California/2009 (H1N1). As to the kind of experiment: microbe, parasite or virus in culture. Type of assay: cell-based. The conditions noted are these: H1N1, MDCK.
As for `O=C1c2c(O)c(=O)ccn2N([C@@H]2c3ccc(F)c(F)c3CSc3ccsc32)[C@@H]2COCCN12` [1.3.2, (12aR)-7-hydroxy-12-[(10R)-6,7-difluoro-5,10-dihydrothieno[3,2-c][2]benzothiepin-10-yl]-3,4,12,12a-tetrahydro-1H-[1,4]oxazino[3,4-c]pyrido[2,1-f][1,2,4]triazine-6,8-dione], the EC50 is less than 0.3 nM.

Consider `O=C1c2c(O)c(=O)ccn2N([C@H](c2ccccc2)c2ccc(F)c(F)c2)[C@@H]2COCCN12` [1.8.2, (12aR)-7-hydroxy-12-[(R)-(3,4-difluorophenyl)(phenyl)methyl]-3,4,12,12a-tetrahydro-1H-[1,4]oxazino[3,4-c]pyrido[2,1-f][1,2,4]triazine-6,8-dione], for which the EC50 fell in the range of 2 to 4 nM.

`O=C1c2c(O)c(=O)ccn2N([C@@H](c2ccccc2)c2ccc(F)c(F)c2)[C@@H]2COCCN12` [1.9.2, (12aR)-7-hydroxy-12-[(S)-(3,4-difluorophenyl)(phenyl)methyl]-3,4,12,12a-tetrahydro-1H-[1,4]oxazino[3,4-c]pyrido[2,1-f][1,2,4]triazine-6,8-dione]: the EC50 is 2 to 4 nM.

The compound `O=C1c2c(O)c(=O)ccn2N(C(c2ccccc2)c2ccccc2)[C@@H]2COCCN12` [1.13.2, (12aR)-7-hydroxy-12-diphenylmethyl-3,4,12,12a-tetrahydro-1H-[1,4]oxazino[3,4-c]pyrido[2,1-f][1,2,4]triazine-6,8-dione] displayed an EC50 of 2 to 4 nM.

`O=C1c2c(O)c(=O)ccn2N(C(c2ccc(F)cc2)c2ccc(F)cc2)[C@@H]2COCCN12` [1.14.2, (12aR)-7-hydroxy-12-[bis(4-fluorophenyl)methyl]-3,4,12,12a-tetrahydro-1H-[1,4]oxazino[3,4-c]pyrido[2,1-f][1,2,4]triazine-6,8-dione] returned an EC50 of 2 to 4 nM.
